Test results: US11952349B2, “Anti-cancer nuclear hormone receptor-targeting compounds” (Nuvation Bio Inc., priority 2019, dated 2024)
pKi: −log10 of the molar value.

Target: T1, AR in LNCaP cytosol (Homo sapiens, UniProt P10275, T878A)
T1 construct: AR in LNCaP cytosol was used; endogenous in cells; host or cells: LNCaP cells (cytosol)
T1 sequence (P10275 1-920 T878A): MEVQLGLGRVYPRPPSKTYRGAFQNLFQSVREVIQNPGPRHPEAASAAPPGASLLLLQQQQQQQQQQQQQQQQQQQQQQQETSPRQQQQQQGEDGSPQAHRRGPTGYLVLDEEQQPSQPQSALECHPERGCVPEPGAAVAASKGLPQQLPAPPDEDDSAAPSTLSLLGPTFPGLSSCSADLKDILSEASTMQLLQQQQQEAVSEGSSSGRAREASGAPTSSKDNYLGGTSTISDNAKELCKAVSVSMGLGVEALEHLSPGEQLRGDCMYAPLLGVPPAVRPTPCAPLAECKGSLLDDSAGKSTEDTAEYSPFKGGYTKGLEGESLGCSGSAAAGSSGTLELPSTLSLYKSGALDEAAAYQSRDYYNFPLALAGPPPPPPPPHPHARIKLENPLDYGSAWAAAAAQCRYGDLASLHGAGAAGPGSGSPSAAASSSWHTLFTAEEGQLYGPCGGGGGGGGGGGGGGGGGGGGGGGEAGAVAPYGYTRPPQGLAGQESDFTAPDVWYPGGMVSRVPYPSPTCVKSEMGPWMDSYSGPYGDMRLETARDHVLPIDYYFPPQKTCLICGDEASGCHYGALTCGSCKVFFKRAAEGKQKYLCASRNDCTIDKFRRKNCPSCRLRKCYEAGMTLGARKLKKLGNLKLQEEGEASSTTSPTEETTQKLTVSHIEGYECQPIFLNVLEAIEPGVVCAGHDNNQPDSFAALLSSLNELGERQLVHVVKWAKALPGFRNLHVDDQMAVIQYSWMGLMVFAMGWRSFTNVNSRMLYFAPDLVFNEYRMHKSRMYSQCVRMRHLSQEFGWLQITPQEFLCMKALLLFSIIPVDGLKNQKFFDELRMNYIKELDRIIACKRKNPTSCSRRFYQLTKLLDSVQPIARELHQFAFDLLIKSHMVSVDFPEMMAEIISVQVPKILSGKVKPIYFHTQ
Assay: AR binding assay, 3H-methyltrienolone (Biological Example 1)
Details: Table 6, in vitro NHR binding; Ki=IC50/(1+[L]/Kd), [L] 1 nM, Kd 0.332 nM
Method: The following methods are for evaluating the in vitro biology properties of the test articles. • a. RBC HotSpot Poly(ADP-ribose) Polymerases 1 (PARP1) and Poly(ADP-ribose) Polymerases 2 (PARP2) Assays: The assay was conducted at Reaction Biology Corporation (RBC; Malvern, PA). The assay principle is radioisotope-based filter binding assay where incorporation of radioisotope-labeled NAD^+ into the substrate captured on filter is detected after washout free NAD^+. Data were analyzed using Excel and GraphPad Prism software for IC50 curve fits. Each assay was conducted with PJ34 as a positive control. […] After incubation for 2 hrs at room temperature, the reaction mixture was filtered and washed with 0.75% phosphoric acid for radioactivity detection. • ii. […] After incubation for 2 hrs at room temperature, the reaction mixture was filtered and washed with 0.75% phosphoric acid for radioactivity detection. • b. […] IC50 s were determined using 8 concentrations/compound. […] Radioactivity is counted using a TriCarb 2910 TR scintillation counter (PerkinElmer). […] The Ki values were further calculated using the equation below where [L] is the radioligand concentration (1 nM) used in this study. […]

In the case of `Cn1ncnc1C1c2n[nH]c(=O)c3cc(F)cc(c23)N[C@@H]1c1ccc(NC(=O)CCCCCO[C@@H]2CC[C@H]3[C@@H]4CC[C@H]5CCCC[C@]5(C)[C@H]4CC[C@]23C)cc1` (stereo partly drawn) [Compound 1128, 6-((5R,8R,9S,10S,13S,14S,17R)-10,13-dimethylhexadecahydro-1H-cyclopenta[a]phenanthren-17-yloxy)-N-(4-((8S)-5-fluoro-9-(1-methyl-1H-1,2,4-triazol-5-yl)-3-oxo-3,7,8,9-tetrahydro-2H-pyrido[4,3,2-de]phthalazin-8-yl)phenyl)hexanamide], the pKi was less than 5.13.
